Assay results from ChEMBL document CHEMBL1201862, “PubChem BioAssay data set” (2004).
Activity calls are given as the source filed them.

Key:
[1] = growth inhibition of yeast DHODH-expressing 3D7 parasites – SYBR Green, dry powder samples, dose response (AID 1159570); assay type: functional, cell-based;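 further: parasite growth measured after 72 hours of compound exposure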
[2] = toxicity to human HepG2 hepatoma cells – cell-based, plate reader, dry powder samples, cytotoxicity control, dose response (AID 1159569); assay type: functional;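 further: inhibitor potency with signal falling toward the positive control level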
[3] = P. falciparum Dd2 growth inhibitors, dose response, SYBR Green, cherry-picked samples (AID 1159567); assay type: functional, cell-based
[4] = Dd2 malaria parasite growth inhibition potency – SYBR Green, dry powder samples, dose response (AID 1159566); assay type: functional, cell-based;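 further: potency for growth inhibition with lower SYBR green DNA signal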
[5] = growth inhibition of PfATP4-mutant resistant parasites – NITD609-resistant line, SYBR Green, dry powder, dose response (AID 1159571); assay type: functional, cell-based;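 further: parasites synchronized at ring stage by sorbitol before testing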
[6] = potency of ADAM10 substrate cleavage blockers – biochemical, QFRET, dose response (AID 743254);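 further: ADAM10 enzyme with the DM2 quenched FRET peptide as substrate; EDANS fluorescence gain as the protease cuts the substrate; inhibitor potency against ADAM10 proteolytic activity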
[7] = general cell-killing toxicity readout – plate reader, dry powder samples, cytotoxicity control for PAX8 inhibitor project, dose response (AID 743021); assay type: functional, cell-based
[8] = target: T1, Oxysterols receptor LXR-beta (Homo sapiens, UniProt P55055); test: LXR agonists, Gal4 luciferase reporter, dose response, counter-screen for ssDAF-12 agonist project, cell-based, luminescence, HEK293, S. stercoralis campaign (AID 720737); assay type: functional; settings: read-out: IC50 (the source's name)
T1 sequence (P55055 whole entry): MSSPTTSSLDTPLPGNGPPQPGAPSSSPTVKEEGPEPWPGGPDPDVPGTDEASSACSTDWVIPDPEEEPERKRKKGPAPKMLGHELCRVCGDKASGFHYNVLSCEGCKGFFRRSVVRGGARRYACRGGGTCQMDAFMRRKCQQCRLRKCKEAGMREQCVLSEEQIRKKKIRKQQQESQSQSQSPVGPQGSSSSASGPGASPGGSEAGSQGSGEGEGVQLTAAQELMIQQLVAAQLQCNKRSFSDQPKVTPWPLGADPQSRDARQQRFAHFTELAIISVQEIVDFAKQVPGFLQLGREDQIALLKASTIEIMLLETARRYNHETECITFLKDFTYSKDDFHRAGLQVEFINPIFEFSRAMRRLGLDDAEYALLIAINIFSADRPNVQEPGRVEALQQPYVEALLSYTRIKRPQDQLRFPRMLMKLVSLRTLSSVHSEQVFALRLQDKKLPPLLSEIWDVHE

[9] = target: T1, Oxysterols receptor LXR-beta; assay type: functional, cell-based
Prothrombin = Prothrombin (Homo sapiens, UniProt P00734); test: Thrombin 1536 HTS Dose Response Confirmation. [Related pubchem assays: 1046 (Thrombin 1536 HTS; hits were confirmed in this assay)]; assay type: functional
[10] = A549 cell cytotoxicity, dose response, cytotoxicity control, plate reader, cherry-pick, antagonist series (AID 743412); assay type: functional, cell-based
[11] = toxicity toward HepG2 liver cells – cell-based, plate reader, cherry-pick, antagonist series, cytotoxicity control, dose response (AID 743416); assay type: functional
[12] = blockade of melanocortin 4 receptor signaling – cell-based, plate reader, cherry pick, counter-screen for LGR2 antagonist project, dose response (AID 743444); assay type: functional;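 further: transfected HEK 293 cells stimulated with alpha-MSH peptide; potency of inhibitors of the alpha-MSH evoked signal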
[13] = viability loss in HEK293 cells – cell-based, plate reader, cherry-picked samples, cytotoxicity control, dose response (AID 743446); assay type: functional
[14] = Luminescence Cell-Based Dose Confirmation HTS to Identify Activators of 5'UTR Stem-Loop Driven Alpha-Synuclein mRNA Translation in H4 Neuroglioblastoma Cells. [Related pubchem assays: 1829 (Project Summary), 1814 (Primary HTS)]; assay type: functional
[15] = Luminescence Cell-Based Dose Response HTS to Identify Activators of Luciferase Translation or Activity in H4 […] Cells. [Related pubchem assays: 1829 (Project Summary), 1814 (Primary HTS)]; assay type: functional
H4 = test: Luminescence Cell-Based Dose Response HTS to Identify Activators of 5'UTR Stem-Loop Driven Prion Protein mRNA Translation in H4 Neuroglioblastoma Cells. [Related pubchem assays: 1829 (Project Summary), 1814 (Primary HTS)]; assay type: functional; settings: Homo sapiens
[16] = toxicity to human hepatoma HepG2 cells – cell-based, cherry-picked samples, cytotoxicity control, dose response (AID 1159577); assay type: functional
[17] = Luminescence-based cell-based high throughput dose response assay to identify activators of the DAF-12 from the parasite S. stercoralis (ssDAF-12).; assay type: functional
[18] = target: E3 ubiquitin-protein ligase Mdm2 (Homo sapiens, UniProt Q00987); test: MDM2-luc reporter signal enhancers, multi-concentration potency testing, MDM2 ubiquitin-protein ligase inhibitor program, whole-cell format, luminescence detection, 384-well microplate (AID 1394); assay type: functional;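 further: MDM2 E3 inhibitors raise luminescence so EC50 is for signal enhancement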
E3 ubiquitin-protein ligase Mdm2, sequence (Q00987 whole entry): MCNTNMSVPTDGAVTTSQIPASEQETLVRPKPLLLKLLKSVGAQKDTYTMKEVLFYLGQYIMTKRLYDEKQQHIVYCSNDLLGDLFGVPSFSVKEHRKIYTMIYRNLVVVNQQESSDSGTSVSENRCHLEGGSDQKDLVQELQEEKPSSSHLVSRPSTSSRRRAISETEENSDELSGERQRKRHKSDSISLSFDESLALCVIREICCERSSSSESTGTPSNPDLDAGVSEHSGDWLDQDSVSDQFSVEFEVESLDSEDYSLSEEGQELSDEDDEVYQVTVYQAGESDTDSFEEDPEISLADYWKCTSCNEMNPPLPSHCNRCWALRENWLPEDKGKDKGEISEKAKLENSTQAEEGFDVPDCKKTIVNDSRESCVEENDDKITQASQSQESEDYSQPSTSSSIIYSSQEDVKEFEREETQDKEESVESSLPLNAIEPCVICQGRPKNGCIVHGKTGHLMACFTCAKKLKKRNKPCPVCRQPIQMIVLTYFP

Ephrin type-A receptor 4 = Ephrin type-A receptor 4 (Mus musculus, UniProt Q03137); test: EphA4 ligand-binding antagonists – biochemical, colorimetric, mouse EphA4, primary screen (AID 689); assay type: functional
Ephrin type-A receptor 4, sequence (Q03137 whole entry): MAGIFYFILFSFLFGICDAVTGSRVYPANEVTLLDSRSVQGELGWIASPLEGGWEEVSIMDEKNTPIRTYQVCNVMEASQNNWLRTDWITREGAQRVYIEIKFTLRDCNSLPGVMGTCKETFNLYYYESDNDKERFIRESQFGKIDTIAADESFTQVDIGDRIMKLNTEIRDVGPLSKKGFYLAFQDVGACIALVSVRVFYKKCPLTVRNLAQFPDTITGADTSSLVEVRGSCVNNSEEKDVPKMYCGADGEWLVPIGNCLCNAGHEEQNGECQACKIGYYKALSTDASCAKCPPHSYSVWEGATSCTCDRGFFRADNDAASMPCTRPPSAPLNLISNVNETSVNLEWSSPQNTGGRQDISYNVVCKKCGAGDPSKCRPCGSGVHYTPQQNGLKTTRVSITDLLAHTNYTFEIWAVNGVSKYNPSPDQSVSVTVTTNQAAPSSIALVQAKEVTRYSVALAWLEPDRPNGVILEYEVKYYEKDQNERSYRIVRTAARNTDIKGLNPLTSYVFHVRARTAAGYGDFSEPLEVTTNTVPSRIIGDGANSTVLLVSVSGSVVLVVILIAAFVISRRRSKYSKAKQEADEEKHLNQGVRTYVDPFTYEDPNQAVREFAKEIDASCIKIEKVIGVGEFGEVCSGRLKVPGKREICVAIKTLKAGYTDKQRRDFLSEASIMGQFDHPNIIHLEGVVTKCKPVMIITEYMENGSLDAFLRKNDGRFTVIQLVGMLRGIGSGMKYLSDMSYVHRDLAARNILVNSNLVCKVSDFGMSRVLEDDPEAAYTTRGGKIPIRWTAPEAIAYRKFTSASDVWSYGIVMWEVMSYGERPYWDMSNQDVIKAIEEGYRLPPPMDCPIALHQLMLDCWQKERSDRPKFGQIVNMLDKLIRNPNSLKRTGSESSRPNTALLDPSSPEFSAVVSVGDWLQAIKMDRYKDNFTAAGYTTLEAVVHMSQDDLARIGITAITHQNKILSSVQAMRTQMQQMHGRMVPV

[19] = viability loss in THP-1 monocytes – THP-1 cells, cytotoxicity control for Vif-APOBEC3G degradation inhibitor project, dose response (AID 1117359); assay type: functional; settings: THP-1
[20] = reduced cellular PGC1a acetyl-lysine signal – cell-based, cherry-picked samples, dose response (AID 720514); assay type: functional;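 further: potency may reflect raised or lowered acetylation signal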
[21] = Luminescence Cell-Based Dose Confirmation HTS to Identify Inhibitors of Polyadenylation.; assay type: functional
Beta-lactamase [22] = target: Beta-lactamase (Salmonella choleraesuis (strain SC-B67), UniProt Q5J463); test: Epi-absorbance-based counterscreen for selective VIM-2 inhibitors: dose response biochemical high throughput screening assay to identify inhibitors of TEM-1 serine-beta-lactamase.
Beta-lactamase (Salmonella choleraesuis (strain SC-B67), UniProt Q5J463), sequence (Q5J463 whole entry): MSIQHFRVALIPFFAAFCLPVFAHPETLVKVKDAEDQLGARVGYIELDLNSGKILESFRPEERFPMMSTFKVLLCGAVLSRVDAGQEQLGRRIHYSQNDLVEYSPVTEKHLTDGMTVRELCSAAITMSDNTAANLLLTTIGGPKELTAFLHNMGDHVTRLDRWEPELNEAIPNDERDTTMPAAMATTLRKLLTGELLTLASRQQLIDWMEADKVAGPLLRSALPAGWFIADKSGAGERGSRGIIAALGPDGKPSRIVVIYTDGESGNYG

Beta-lactamase [23] = target: T2, Beta-lactamase (Pseudomonas aeruginosa, UniProt Q79MP6); test: inhibition of IMP-1 beta-lactamase activity – biochemical, epi-absorbance, selectivity assay for VIM-2 inhibitor project, dose response (AID 1920)
T2 sequence (Q79MP6 whole entry): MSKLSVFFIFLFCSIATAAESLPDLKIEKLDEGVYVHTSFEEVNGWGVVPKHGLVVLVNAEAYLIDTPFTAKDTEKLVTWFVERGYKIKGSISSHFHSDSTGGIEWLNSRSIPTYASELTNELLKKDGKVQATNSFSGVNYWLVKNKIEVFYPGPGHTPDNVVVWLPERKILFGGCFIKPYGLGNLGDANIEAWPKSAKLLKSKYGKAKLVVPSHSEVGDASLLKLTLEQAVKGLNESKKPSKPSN

Beta-lactamase [24] = target: T2, Beta-lactamase; test: […] counterscreen for selective VIM-2 inhibitors: dose response biochemical high throughput screening assay to identify inhibitors of IMP-1 metallo-beta-lactamase.
[25] = target: DNA dC->dU-editing enzyme APOBEC-3G (Homo sapiens, UniProt Q9HC16); test: Dose Response confirmation of small molecule APOBEC3G DNA Deaminase Inhibitors via a fluorescence-based single-stranded DNA deaminase assay. [Related pubchem assays (depositor defined):AID493012, AID493028]; assay type: functional
DNA dC->dU-editing enzyme APOBEC-3G, sequence (Q9HC16 whole entry): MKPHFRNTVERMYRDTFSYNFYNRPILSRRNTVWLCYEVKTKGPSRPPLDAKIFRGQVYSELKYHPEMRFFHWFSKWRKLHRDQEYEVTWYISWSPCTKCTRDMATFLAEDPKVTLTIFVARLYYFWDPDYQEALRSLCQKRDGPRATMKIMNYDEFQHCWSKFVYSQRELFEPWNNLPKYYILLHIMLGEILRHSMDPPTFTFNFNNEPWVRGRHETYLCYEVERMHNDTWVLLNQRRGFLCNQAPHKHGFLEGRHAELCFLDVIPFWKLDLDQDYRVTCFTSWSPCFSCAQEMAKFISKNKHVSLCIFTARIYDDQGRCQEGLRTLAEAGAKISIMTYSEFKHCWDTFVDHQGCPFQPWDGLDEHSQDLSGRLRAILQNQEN

SMILES: COCc1cn([C@@H]2C[C@@H]3O[C@@H](CO)CC[C@@H]3O[C@@H]2CCc2ccc(-c3ccc(OC)cc3)cc2)nn1
- AC50 [1]: 0.231 µM (active)
- AC50 [2]: 43 µM (active)
- AC50 [3]: 1.12 µM (active)
- AC50 [4]: 0.362 µM (active)
- AC50 [5]: 0.451 µM (active)

SMILES: Oc1nc2ccccc2n1C1CCN(C(c2ccccc2OC(F)(F)F)c2nnnn2-c2ccc3c(c2)OCCO3)CC1 (stereo unspecified)
- IC50 [6]: > 69.5 µM (inactive)
- AC50 [7]: 37.1 µM (active)

SMILES: NC(=NOC(=O)c1ccccc1Cl)c1ccccc1
- EC50 [8]: > 67.6 µM (inactive)
- EC50 [9]: > 67.6 µM (inactive)

SMILES: Cc1ccc2c(c1)C1CN(C)CCC1N2C(=O)c1cn(-c2ccccc2)nc1-c1ccccc1 (stereo unspecified)
- IC50 (Prothrombin): 3.04 µM (active)
- AC50 [10]: 36.4 µM (active)
- AC50 [11]: > 52 µM (inactive)
- AC50 [12]: 55.6 µM (active)
- AC50 [13]: 35.3 µM (active)

SMILES: O=C(CSc1ncccc1-c1nc2ccccc2[nH]1)N1CCc2ccccc21
- EC50 [14]: 15.1 µM (active)
- EC50 [15]: 4.81 µM (active)
- EC50 (H4): 21.1 µM (inconclusive)
- AC50 [7]: 59.9 µM (active)

SMILES: O=S(=O)(c1ccc(-c2ccccc2)cc1)N1C[C@@H]2N[C@H](C1)[C@@H]2c1ccc(-c2ccccc2)cc1
- AC50 [3]: 2.86 µM (active)
- AC50 [16]: 16 µM (active)

SMILES: N=C(NOC(=O)c1ccccc1Cl)c1ccccc1
- IC50 [17]: > 67.6 µM (inactive)
- EC50 (cells): > 67.6 µM (inactive)

SMILES: O=C1NC(=O)c2cc(NC(=O)C3COc4ccccc4O3)ccc21 (stereo unspecified)
- EC50 [18]: 6.75 µM (not active)

SMILES: C[C@H](CO)N1C[C@H](C)[C@@H](CN(C)C(=O)c2ccc(F)cc2)Oc2ncc(/C=C/c3ccccc3)cc2C1=O
- AC50 [1]: 2.68 µM (active)
- AC50 [2]: 85.2 µM (active)
- AC50 [3]: 1.63 µM (active)
- AC50 [4]: 1.58 µM (active)
- AC50 [5]: 1.65 µM (active)

SMILES: CCOC(=O)C1=C(C)N=c2s/c(=C/c3ccco3)c(=O)n2C1c1cccc(OC)c1 (stereo unspecified)
- IC50 (Ephrin type-A receptor 4): > 100 µM (not active)
- CC50 [19]: > 40 µM (active)

SMILES: C[C@H](CO)N1C[C@H](C)[C@@H](CN(C)Cc2cccnc2)Oc2cc(C#CC3CCCCC3)ccc2S1(=O)=O
- AC50 [20]: 6.45 µM (active)

SMILES: COC(=O)c1cc(C(=O)N2CCN(c3cccc(C)c3C)CC2)cc([N+](=O)[O-])c1
- EC50 [21]: > 120 µM (not active)

SMILES: CCCCn1c(S)nnc1-c1nn(C)c(C)c1Cl
- IC50 (Beta-lactamase [22]): > 59.6 µM (inactive)
- IC50 (Beta-lactamase [23]): > 59.6 µM (inactive)
- IC50 (Beta-lactamase [24]): > 59.6 µM (inactive)
- IC50 [25]: 12.5 µM (active)
